Experiments:
[1] = tested on: E. multilocularis metacestode vesicles; assay: Metacestode vesicle viability assay (ATP, CellTiter-Glo); type: cell-based, Echinococcus multilocularis; conditions: overview screen, 10 μM, singlets, 12 days, relative to DMSO control
Description: Viability was assessed after 12 days using the same metacestode vesicles as for the PGI release assay. Triton X-100 was added to each well to a final concentration of 0.1 %. Subsequently the metacestode vesicles were broken mechanically and 50 μL of the supernatant was mixed with 50 μL of CellTiter-Glo® buffer (Promega, Dübendorf, Switzerland). Measurements were performed on a HIDEX Sense microplate reader.

[2] = tested on: E. multilocularis metacestode vesicles; assay: Phosphoglucose isomerase (PGI) release assay (damage-marker release) on metacestode vesicles; type: cell-based, Echinococcus multilocularis; conditions: overview screen, 10 μM, singlets, relative to 0.1 % Triton X-100, DMSO subtracted; for PGI d5 (relative PGI release): 5 days; for PGI d12 (relative PGI release): 12 days

SMILES | Viability d12 (relative viability) [1] | PGI d5 (relative PGI release) [2] | PGI d12 (relative PGI release) [2]
Cc1ccc(Oc2ccccc2-c2csc(N=C3NCCCN3)n2)c(C)c1 [MMV1634493] | 36.7387% | 4.111% | 7.6311%
CNCC(=O)OCc1cccnc1N(C)C(=O)OC(C)[n+]1cnn(C[C@](O)(c2cc(F)ccc2F)[C@@H](C)c2nc(-c3ccc(C#N)cc3)cs2)c1 (stereo partly drawn) [MMV1634494] | 42.7505% | -2.972% | -24.8266%
CCc1cc(CCCOc2c(C)cc(-c3noc(C(F)(F)F)n3)cc2C)on1 [MMV1634556] | 121.169% | 0.6182% | -18.063%
COc1cc(C2C3=C(CC(C)(C)CC3=O)Nc3ccccc3N2C(C)=O)ccc1OCc1ccccc1 (stereo not drawn) [MMV1634557] | 141.611% | -2.659% | -23.764%
O=[N+]([O-])/C(Br)=C/c1ccc(Br)o1 [MMV1645051] | 16.4489% | 1.139% | -20.9736%
Nc1nc(O)c(Br)c(-c2cccc(Cl)c2)n1 [MMV1645152] | 465.171% | -0.1718% | -17.4315%
CCc1nc2ccccn2c1C(=O)NCc1ccccc1 [MMV1663457] | 46.6749% | -2.34% | -12.7903%
O=C(NCc1ccc(F)cc1)c1c(O)c2ncccc2[nH]c1=O [MMV1782097] | 171.617% | 0.7945% | -0.6563%
CCCCN1C[C@H](O)[C@@H](O)[C@H](O)[C@H]1CO [MMV1782098] | 82.1234% | -0.9049% | -0.1991%
COc1cc(C(C)(C)CCCC(C)C)cc(OC)c1OC [MMV1782102] | 58.4954% | 0.2099% | -19.1561%
COCCn1cnc2c(O)nc(Nc3ccccc3)nc21 [MMV1782103] | 66.6969% | -0.2041% | -2.0996%
NC(=O)c1nccn([C@@H]2O[C@H](CO)[C@@H](O)[C@H]2O)c1=O [MMV1782104] | 106.79% | 1.472% | -19.2173%
O=c1oc2ccc(Br)cc2cc1CSc1ncc[nH]1 [MMV1782105] | 107.746% | 1.562% | -17.9407%
CCc1cc(CCC(=O)Nc2ccccc2O)c(=O)[nH]c1C [MMV1782106] | 488.194% | 1.217% | -17.9747%
O=c1[nH]c(=O)n(Cc2cccc(Oc3ccccc3)c2)cc1Nc1ccccc1 [MMV1782107] | 211.334% | 0.6712% | -19.0475%
CCCCc1ccc(S(=O)(=O)Nc2cc(C)on2)cc1 [MMV1782108] | 50.3487% | -2.561% | -24.5808%
O=C(N[C@H](Cc1cccc2ccccc12)C(=O)NCCc1c[nH]cn1)C1Cc2ccccc2C1 [MMV1782109] | 29.391% | -2.59% | -25.3398%

SMILES | Viability d12 (relative viability) [1] | PGI d5 (relative PGI release) [2] | PGI d12 (relative PGI release) [2]
O=C(CCc1ccc2c(c1)OCO2)NCc1ccc(-c2ccccc2F)cc1 [MMV1782110] | 100.363% | -0.8152% | -13.3688%
CC(C)C(=O)N[C@H]1[C@H]([C@H](O)[C@H](O)CO)OC(C(=O)O)=C[C@@H]1N=[N+]=[N-] [MMV1782111] | 85.5263% | -0.6196% | 0.1424%
CCOC(=O)/C=C/[C@H](C[C@@H]1CCNC1=O)NC(=O)[C@H](CC)n1cccc(NC(=O)c2cc(C)on2)c1=O [MMV1782112] | 109.382% | 0.1675% | -19.6518%
CCCC1(C2CC2)c2cc(Cl)ccc2NC(=O)N1C (stereo not drawn) [MMV1782113] | 107.305% | 0.2859% | 0.236%
COc1ccc2sc3c(c2c1)NC(C)CNC3=O (stereo not drawn) [MMV1782115] | 114.23% | -1.121% | 1.77%
O=C(Nc1nnc(-c2ccc(Cl)cc2)o1)c1ccc(F)cc1 [MMV1782140] | 86.8653% | -3.764% | 9.726%
CN1C(=O)C(c2ccccc2)C(=O)N(c2ccccc2)c2cc(C(F)(F)F)ccc21 (stereo not drawn) [MMV1782208] | 97.8548% | 0.993% | -0.2102%
COc1ccc(C(C)(C)C)cc1NC(=O)C(=O)c1ccc(OCCN2CCOCC2)c2ccccc12 [MMV1782209] | 152.31% | 0.2921% | 0.2691%
Nc1nc2c(ncn2/C=C2/CC2(CO)CO)c(=O)[nH]1 [MMV1782210] | 144.056% | 0.1371% | -1.147%
C[C@@H](NC(=O)c1cccc(-c2cnc(-c3cc4ccccc4cn3)[nH]2)c1)c1ccc(F)cc1 [MMV1782211] | 82.804% | 2.451% | 6.1027%
CC(C)(C)c1ccc(C(=O)NC(=O)N2CCCc3ccccc32)cc1 [MMV1782212] | 85.4175% | -2.428% | -24.6748%
O=C(CSc1nnc(Br)n1-c1ccc(C2CC2)c2ccccc12)Nc1ccc(C(=O)O)cc1Cl [MMV1782213] | 116.37% | 1.533% | -0.7445%
C=CCN(C(=O)OCc1ccc([N+](=O)[O-])cc1)C1CCN(CC[C@](C)(CN(C)S(=O)(=O)c2ccccc2)c2ccccc2)CC1 [MMV1782214] | 76.726% | 0.9992% | 3.53%
O=P(O)(O)C(CCCc1cccc(Oc2ccccc2)c1)S(=O)(=O)O (stereo not drawn) [MMV1782215] | 65.7947% | 0.5378% | 19.5176%
CCCNc1ccc(S(=O)(=O)Nc2cc(C)on2)cc1 [MMV1782216] | 105.791% | -2.087% | -24.1037%
Cc1cc(NS(=O)(=O)c2ccc(-c3ccc(F)cc3F)cc2)no1 [MMV1782217] | 58.3644% | -2.099% | -26.6121%
O=C(NC(=O)N1CCCc2ccccc21)c1ccc(Cl)cc1Cl [MMV1782218] | 60.7859% | -2.44% | -25.0073%

Reference: publication PMC12410356 (International Journal for Parasitology: Drugs and Drug …, 2025)
